One assay has as its system E1, E2, CAT. In words: Split-CAT system counter-checks (E1, E2, CAT activity, E. coli toxicity). It is filed as cell-based. The method, then:
(§1) Assays were performed as previously described.84,85 The selection plasmids were co-transformed into Mach1™-T1R E. coli cells. All growth assays were performed in LB agar or liquid at 37° C. Optimization of chloramphenicol (CAM) concentrations were performed according to the largest growth shift between the hyperactive mutant to the catalytic dead mutant in SMURF1 (ΔC2-K381R; ΔC2-C725A) or in E6AP (HECTd-K466R; HECTd-C820A) at each assay as previously described. The disclosers constructed a split-CAT based E3-dependent Rpn10 full length ubiquitylation cascade to monitor the effect of inhibitor and point mutations in ubiquitin E3 ligases. Specifically, yeast Rpn10 was tethered to N-CAT as a general ubiquitylation target and co-expressed with C-CAT-Ub, E1, E2 and human SMURF1235-757: wild-type DC2, K381R or catalytic dead C725A. Similarly, E6AP453-852: wild-type HECTd, K466R or catalytic dead HECTd-C820A.
To inspect ubiquitylation of BMPR2, the disclosures substituted Rpn10 with BMPR2174-558 cytosolic portion fused to the N-CAT. […] Inhibition assays were performed in liquid LB using 96 well-plate with Tecan Sunrise reader high intensity shaking for 9.5 mins rest for 10, 5 mins shake and read at 595 nm. Growth was monitored between 12-36 Hrs as indicated.

The next assay addresses T1, E6AP (Homo sapiens, UniProt Q05086, K489R).
T1 construct: Similarly, E6AP453-852: wild-type HECTd, K466R or catalytic dead HECTd-C820A; expressed in transfected cells; host or cells: Mach1-T1R E. coli
T1 sequence (Q05086 453-852 isoform Q05086-2 K466R): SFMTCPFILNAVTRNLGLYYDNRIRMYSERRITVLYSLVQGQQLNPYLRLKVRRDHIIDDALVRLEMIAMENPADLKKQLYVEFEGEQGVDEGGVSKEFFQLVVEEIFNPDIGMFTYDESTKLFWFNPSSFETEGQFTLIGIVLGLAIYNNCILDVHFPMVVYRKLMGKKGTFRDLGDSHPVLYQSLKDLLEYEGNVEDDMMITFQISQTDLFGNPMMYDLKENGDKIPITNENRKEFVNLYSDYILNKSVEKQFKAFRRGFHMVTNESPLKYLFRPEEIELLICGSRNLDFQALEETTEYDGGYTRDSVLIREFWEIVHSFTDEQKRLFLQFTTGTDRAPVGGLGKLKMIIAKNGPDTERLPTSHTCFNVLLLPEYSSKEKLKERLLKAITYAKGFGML
In words: E. coli split-CAT E6AP reporter system. It is filed as cell-based. How it is done: as §1
To inspect ubiquitylation of BMPR2, the disclosures substituted Rpn10 with BMPR2174-558 cytosolic portion fused to the N-CAT. […] Inhibition assays were performed in liquid LB using 96 well-plate with Tecan Sunrise reader high intensity shaking for 9.5 mins rest for 10, 5 mins shake and read at 595 nm. Growth was monitored between 12-36 Hrs as indicated. […]

The subject of a further assay is SMURF1 mRNA. In words: Screen for modulators of SMURF1 mRNA abundance in PASMCs. The format is cell-based, human. The following applies: PASMCs from PAH patients; normalized Ct values. How it is done:
(§2) FIG. 13. (A) Screen for modulators of SMURF1 mRNA abundance in PASMCs. Human PASMCs from PAH patients were treated with agents that are associated with PAH, including cytokines, chemokines, growth factors, and small molecule pathway probes, and were cultured under hypoxic conditions to identify modulators of SMURF1 mRNA (n=2 donors). […] The human SMURF1 promoter was stably transfected into HEK293 cells upstream of a GFP sequence.

The next assay has as its system human SMURF1 promoter. In words: Human SMURF1 promoter-GFP reporter in HEK293 cells. It is filed as cell-based. Conditions: HEK293 stably transfected. How it is done:
as §2

Turning to `Cc1ccc(-n2ccnc2N2CCN(C(=O)C34CC5CC(CC(C5)C3)C4)CC2)cc1` [i-27, 1-[1-(4-methylphenyl)-imidazol-2-yl]-4-[adamantane-1-carbonyl]piperazine], the “Effect on E1, E2, or CAT activities” value in the assay with E1, E2, CAT is “without affecting E1, E2, or CAT activities”. Besides, the “Inhibition of E6AP S739L, R740G double mutant” value at E6AP (escape mutant, FIG. 6K) is on record as “inhibition was reduced twofold”. The E6AP activity entry at E6AP (hyperactive HECTd-K466R E6AP, FIG. 6I) is recorded as “reduced E6AP activity in a dose-dependent manner”.

With “TGFβ1: transforming growth factor beta 1, agent in SMURF1 modulator screen”, in the assay with SMURF1 mRNA, the “SMURF1 expression (mRNA)” value is recorded as “increase SMURF1 expression”. In the assay on human SMURF1 promoter, the “GFP signal (SMURF1 promoter)” value is on record as “increased GFP signal”.

For `CO/C1=C\C(C)=C\[C@@H](C)[C@@H](O)[C@@H](C)C/C(C)=C/C=C/[C@H](OC)[C@@H]([C@@H](C)[C@@H](O)[C@H](C)[C@@]2(O)C[C@@H](O)[C@H](C)[C@@H](C(C)C)O2)OC1=O` [bafilomycin A1, reference compound], in the assay with human SMURF1 promoter, the “GFP signal (SMURF1 promoter)” value was “increased GFP signal”.

For the origin of these results see US20250266123A1, “IN SILICO METHOD OF IDENTIFYING ALLOSTERIC HECT E3-LIGASE INHIBITORS” (Ramot at Tel-Aviv University Ltd., priority 2024, published 2025).
